Among the data in patent US8426408B2, “Pyrimidine inhibitors of kinases” (AbbVie Inc., priority 2009, dated 2013) are Ki values, retold here.

Experiment [1] addresses T1, Aurora A (Homo sapiens, UniProt O14965).
T1 sequence (O14965 1-403): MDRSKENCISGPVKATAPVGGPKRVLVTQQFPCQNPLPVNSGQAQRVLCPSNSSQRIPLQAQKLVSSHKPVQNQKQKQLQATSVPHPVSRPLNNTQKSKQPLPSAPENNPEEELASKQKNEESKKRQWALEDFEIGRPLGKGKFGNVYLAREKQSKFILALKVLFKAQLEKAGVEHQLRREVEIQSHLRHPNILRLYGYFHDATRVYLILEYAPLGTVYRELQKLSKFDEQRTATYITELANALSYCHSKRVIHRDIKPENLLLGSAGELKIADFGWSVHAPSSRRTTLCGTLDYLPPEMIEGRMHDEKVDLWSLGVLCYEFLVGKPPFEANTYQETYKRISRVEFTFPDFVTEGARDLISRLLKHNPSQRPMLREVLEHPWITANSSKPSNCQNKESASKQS
The experiment in a line: Aurora A enzyme inhibition (time-resolved fluorescence, STK substrate-2). Type of experiment: biochemical. Particulars: 1 mM ATP. Summed up: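 Phosphorylation of biotinylated STK substrate-2 at 1 mM ATP, 1 h, Hepes buffer pH 7.4 (MgCl2, sodium orthovanadate, Triton X-100). After EDTA quench, 665/615 nm time-resolved fluorescence ratio read via europium anti-phospho antibody and SA-XL665; IC50 from exponential fit versus inhibitor concentration.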

The target of experiment [2] is KDR (Homo sapiens, UniProt P35968). Nature of the experiment: KDR HTRF in vitro kinase assay. Type of experiment: biochemical. Further details: purified enzyme (His6-KDR 789-1354, MW 63 kD); His6 (N). As to conditions: 1 mM ATP; read-out: KDR enzyme inhibition data (Ki). Summed up:
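His6-KDR 789-1354 (7 ng/well) with 0.5 μM biotinylated peptide substrate and 1 mM ATP in HEPES pH 7.1, MgCl2/MnCl2, 60 min at room temperature. EDTA-quenched, detected by streptavidin-XL-665 plus Eu-kryptate anti-phosphotyrosine HTRF after 3 h; IC50 from 620/665 nm ratio.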
(In general: Time-resolved FRET reads energy transfer from a long-lived donor to a nearby acceptor.)

KDR, sequence (P35968 789-1354): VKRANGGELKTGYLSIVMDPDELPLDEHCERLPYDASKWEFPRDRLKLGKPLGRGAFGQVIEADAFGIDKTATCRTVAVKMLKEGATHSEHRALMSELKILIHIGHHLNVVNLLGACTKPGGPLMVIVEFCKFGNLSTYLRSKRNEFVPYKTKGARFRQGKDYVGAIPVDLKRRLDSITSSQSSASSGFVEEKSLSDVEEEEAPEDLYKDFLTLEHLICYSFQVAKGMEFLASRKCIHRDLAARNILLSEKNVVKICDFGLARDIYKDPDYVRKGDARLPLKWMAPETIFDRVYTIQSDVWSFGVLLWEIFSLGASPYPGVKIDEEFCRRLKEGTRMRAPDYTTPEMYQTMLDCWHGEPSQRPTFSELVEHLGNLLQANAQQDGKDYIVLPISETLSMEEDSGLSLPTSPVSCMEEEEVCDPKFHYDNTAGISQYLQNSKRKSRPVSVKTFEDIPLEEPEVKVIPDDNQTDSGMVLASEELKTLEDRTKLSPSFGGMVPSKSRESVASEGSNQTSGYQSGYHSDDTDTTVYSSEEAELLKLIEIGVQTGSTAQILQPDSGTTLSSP

In the case of `COCCn1cc(Nc2ncc(Cl)c(N[C@H]3[C@@H](C(N)=O)[C@@H]4C=C[C@H]3C4)n2)cn1` [Example 96, (1S,2S,3R,4R)-3-[(5-chloro-2-{[1-(2-methoxyethyl)-1H-pyrazol-4-yl]amino}pyrimidin-4-yl)amino]bicyclo[2.2.1]hept-5-ene-2-carboxamide], the Ki in experiment [1] and in experiment [2] was < 100 nM in each case.

Regarding `CN1CCN(CCn2cc(Nc3ncc(Br)c(N[C@H]4[C@@H](C(N)=O)[C@@H]5C=C[C@H]4C5)n3)cn2)CC1` [Example 94, (1S,2S,3R,4R)-3-{[5-bromo-2-({1-[2-(4-methylpiperazin-1-yl)ethyl]-1H-pyrazol-4-yl}amino)pyrimidin-4-yl]amino}bicyclo[2.2.1]hept-5-ene-2-carboxamide], the Ki in experiment [1] and in experiment [2] was < 100 nM each time.

On to `NC(=O)[C@@H]1[C@H](Nc2nc(Nc3cnn(C4CCNCC4)c3)ncc2Br)[C@H]2C=C[C@@H]1C2` [Example 95, (1S,2S,3R,4R)-3-[(5-bromo-2-{[1-(piperidin-4-yl)-1H-pyrazol-4-yl]amino}pyrimidin-4-yl)amino]bicyclo[2.2.1]hept-5-ene-2-carboxamide], for which the inhibitory constant (Ki) in experiment [1] and in experiment [2] was < 100 nM each time.
